Data reported in article PMC7555035, “In Vitro Inhibition of Phosphodiesterase 3B (PDE 3B) by Anthocyanin-Rich Fruit Juice Extracts and Selected Anthocyanins” (International Journal of Molecular Sciences, 2020).
Entries after “also recorded” stand apart in the source; their conditions may differ. Values belong to the molecule of their own block, whether it stands above or below them.

How the values were obtained:
[1] = target: T1, PDE 3B (recombinant, EC 3.1.4.17) (Homo sapiens, UniProt Q13370); experiment: cAMP-specific PDE activity assay (cell-free, radiochemical); type: biochemical; settings: for influence on PDE activity (in words): c = 25–2000 µM; for IC50: mean ± SD, n = 3–4, read-out: IC50 of cyanidin and anthocyanins; for IC50 of single anthocyanins: given in µg/mL
T1 construct: purchased Sigma Aldrich (St. Louis, MO, USA)
T1 sequence (Q13370 whole entry, species assumed): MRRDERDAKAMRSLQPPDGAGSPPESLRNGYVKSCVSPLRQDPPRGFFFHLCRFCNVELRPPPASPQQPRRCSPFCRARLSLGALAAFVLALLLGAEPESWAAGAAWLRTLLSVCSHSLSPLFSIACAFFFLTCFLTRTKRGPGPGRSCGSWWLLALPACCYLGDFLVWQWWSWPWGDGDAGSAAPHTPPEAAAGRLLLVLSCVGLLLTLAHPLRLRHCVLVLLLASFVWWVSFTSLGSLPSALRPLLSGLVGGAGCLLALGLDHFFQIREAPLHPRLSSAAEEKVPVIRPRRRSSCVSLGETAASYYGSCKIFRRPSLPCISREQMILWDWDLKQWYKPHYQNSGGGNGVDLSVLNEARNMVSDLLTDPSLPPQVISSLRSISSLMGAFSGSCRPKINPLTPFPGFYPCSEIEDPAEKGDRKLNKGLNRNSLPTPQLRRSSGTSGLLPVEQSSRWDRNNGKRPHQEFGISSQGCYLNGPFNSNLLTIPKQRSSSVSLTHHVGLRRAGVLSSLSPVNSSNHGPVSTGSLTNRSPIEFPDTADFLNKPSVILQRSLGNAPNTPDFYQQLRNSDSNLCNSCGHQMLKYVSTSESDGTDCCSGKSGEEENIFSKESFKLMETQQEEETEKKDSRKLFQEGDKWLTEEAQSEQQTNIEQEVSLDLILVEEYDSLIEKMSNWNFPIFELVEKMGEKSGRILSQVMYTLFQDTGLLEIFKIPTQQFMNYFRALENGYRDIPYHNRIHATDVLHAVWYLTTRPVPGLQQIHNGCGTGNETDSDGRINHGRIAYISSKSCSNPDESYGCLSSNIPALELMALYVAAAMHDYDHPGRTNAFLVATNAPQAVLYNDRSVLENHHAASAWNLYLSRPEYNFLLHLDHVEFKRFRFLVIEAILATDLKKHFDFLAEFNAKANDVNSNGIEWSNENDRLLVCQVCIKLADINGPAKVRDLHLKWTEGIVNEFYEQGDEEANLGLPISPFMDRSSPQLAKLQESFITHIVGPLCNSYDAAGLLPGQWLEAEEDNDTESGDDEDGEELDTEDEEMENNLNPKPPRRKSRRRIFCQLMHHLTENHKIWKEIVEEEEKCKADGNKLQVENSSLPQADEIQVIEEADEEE
Experimental: The inhibitory effect of each extract on PDE 3B was measured according to the method published by Pöch et al. with slight modifications. One hundred microliters (100 µL) of the sample and 20 µL of PDE 3B (200 Units/mL) were incubated for 15 min at 4°C. Afterwards, a 50 µL volume of cAMP Mix (30 mM Tris/HCl pH 7.4, 9 mM MgCl2, 3 mM 5′AMP, 3 µM cAMP, 2.6 µCi/mL [2,8-^3H]-cAMP) was added and the mixture incubated for 25 min at 37 °C to allow for reaction. […] Experiments were performed in triplicate, and IC50 values were determined after at least three independent experiments. The ranges of test concentrations of extracts and single substances were intentionally chosen to align with similar ranges used for previous studies (extracts < 600 µg/mL; ACs < 2000 µM) to facilitate comparison with previous experiments.

human PDE 5A1 = test system: human PDE 5A1; design: method as in PMID 15769121; settings: cited from earlier work
[2] = design: method as in PMID 22913378; settings: cited from earlier work
[3] = test system: cytosolic PDE activity in HT29 cells; design: method as in PMID 15497183; settings: cited from earlier work
[4] = test system: phosphodiesterase 3′,5′-cyclic nucleotide 5′nucleotidohydrolase; design: method as in PMID 18617377; settings: 0.01%, diluted in dimethyl sulfoxide; cited from earlier work
[5] = test system: phosphodiesterase from rat adipocytes; design: method as in PMID 1384499; settings: cited from earlier work
[6] = test system: PDE in human platelet lysates; design: method as in PMID 25247601; settings: in vitro; cited from earlier work
PDE 1 = test system: PDE 1; design: method as in PMID 27558680; settings: in vitro; cited from earlier work
[7] = test system: PDE isolated from the lung tumor xenograft cell line LXFL529L; design: method as in PMID 29113064; settings: cited from earlier work

concentration below which no influence on PDE activity [1]: below 884 µM
rel. PDE activity (% of solvent control) ([1]; c = 2000 µM): 52.3 ± 13.7%
influence on PDE activity (in words) [1]: little PDE inhibition
Compound: OC[C@H]1OC(Oc2cc3c(O)cc(O)cc3[o+]c2-c2ccc(O)c(O)c2)[C@H](O)[C@@H](O)[C@H]1O.[Cl-] (stereo partly drawn) [cyanidin-3-galactoside, cyanidin-3-galactoside chloride]

Compound: COc1cc(-c2[o+]c3cc(O)cc(O)c3cc2O[C@@H]2O[C@H](CO)[C@@H](O)[C@H](O)[C@H]2O)cc(OC)c1O.[Cl-] [malvidin-3-glucoside, malvidin-3-glucoside chloride]
minimum rel. PDE activity (% of solvent control) ([1]; c = 1328 µM): 71.4 ± 9.7%
IC50 (human PDE 5A1): 35.4 µM

influence on PDE activity (in words) [1]: inactive
Compound: C[C@@H]1O[C@@H](OC[C@H]2O[C@@H](Oc3cc4c(O)cc(O)cc4[o+]c3-c3ccc(O)c(O)c3)[C@H](O)[C@@H](O)[C@@H]2O)[C@H](O)[C@H](O)[C@H]1O.[Cl-] [cyanidin-3-rutinoside, cyanidin-3-rutinoside chloride]

remaining activity at 11 µM ([1]; c = 11 µM, read-out: rel. PDE 3B activity (% of solvent control)): 94.7 ± 2.8%
remaining activity at 271 µM ([1]; c = 271 µM, read-out: rel. PDE 3B activity (% of solvent control)): 28.7 ± 6.5%
IC50 [1]: 105 ± 11 µM
Compound: Oc1cc(O)c2cc(O)c(-c3ccc(O)c(O)c3)[o+]c2c1 [cyanidin, cyanidin chloride]
stability in cell culture medium (in words) [2]: degraded rapidly
IC50 [3]: ~175 µM

inhibition of PDE 3B ([1]; c = 600 µM): 63%
rel. PDE activity (% of solvent control) ([1]; c = 600 µM): around 40%
IC50 of single anthocyanins [1]: 134 ± 25 µg/mL
IC50 [1]: 299 ± 56 µM
Compound: OC[C@H]1O[C@@H](Oc2cc3c(O)cc(O)cc3[o+]c2-c2ccc(O)c(O)c2)[C@H](O)[C@@H](O)[C@@H]1O.[Cl-] [cyanidin-3-glucoside, cyanidin-3-glucoside chloride]
PDE inhibition [4]: 99%

Compound: O=c1c(-c2ccc(O)cc2)coc2cc(O)cc(O)c12 [genistein]
inhibitory potency relative to 3-isobutyl-2-methylxanthine (in words) [5]: comparable to or greater than 3-isobutyl-2-methylxanthine

Compound: O=c1c(O)c(-c2cc(O)c(O)c(O)c2)oc2cc(O)cc(O)c12 [myricetin]
IC50 [5]: 125 µM

Compound: Cn1c(=O)c2c(ncn2C)n(C)c1=O [caffeine]
IC50 [6]: 700 µM
PDE inhibition [4]: 56%

Compound: O=C(/C=C/c1ccc(O)c(O)c1)O[C@@H]1C[C@](O)(C(=O)O)C[C@@H](O)[C@H]1O [chlorogenic acid]
IC50 (PDE 1): 36.7 ± 1.6 µM

Compound: O=c1c(O)c(-c2ccc(O)c(O)c2)oc2cc(O)cc(O)c12 [Quercetin]
inhibitory potency relative to 3-isobutyl-2-methylxanthine (in words) [5]: comparable to or greater than 3-isobutyl-2-methylxanthine

Compound: COc1cc(-c2[o+]c3cc(O)cc(O)c3cc2O)cc(OC)c1O [malvidin]
IC50 (human PDE 5A1): 24.9 µM

Compound: O=C(/C=C/c1ccc(O)c(O)c1)O[C@@H]1[C@H](O)C[C@@](O)(C(=O)O)C[C@H]1OC(=O)/C=C/c1ccc(O)c(O)c1 (stereo in doubt) [3,4-dicaffeoylquinic acid]
IC50 [7]: > 1000 µM

influence on PDE activity (in words) [1]: inactive; also recorded: no effect
Compound: OC[C@H]1O[C@@H](Oc2cc3c(O[C@@H]4O[C@H](CO)[C@@H](O)[C@H](O)[C@H]4O)cc(O)cc3[o+]c2-c2ccc(O)c(O)c2)[C@H](O)[C@@H](O)[C@@H]1O.[Cl-] [cyanidin-3,5-diglucoside, cyanidin-3,5-diglucoside chloride]

concentration above which PDE activity significantly diminished [1]: above 55 µM
rel. PDE 3B activity (% of solvent control) ([1]; c = 271 µM): comparable to those seen with caffeine
IC50 of single anthocyanins [1]: 56 ± 20 µg/mL
IC50 [1]: 120 ± 44 µM
Compound: COc1cc(-c2[o+]c3cc(O)cc(O)c3cc2O[C@@H]2O[C@H](CO)[C@@H](O)[C@H](O)[C@H]2O)ccc1O.[Cl-] [peonidin-3-glucoside, Peonidin-3-glucoside chloride]

Compound: O=C(O)c1cc(O)c(O)c(O)c1 [gallic acid]
IC50 (PDE 1): 325 ± 3.62 µM

Compound: O=c1cc(-c2ccc(O)c(O)c2)oc2cc(O)cc(O)c12 [luteolin]
inhibitory potency relative to 3-isobutyl-2-methylxanthine (in words) [5]: comparable to or greater than 3-isobutyl-2-methylxanthine
IC50 [7]: 41 ± 10 µM

rel. PDE activity (% of solvent control) ([1]; c = 600 µM): around 40%
IC50 [1]: 448 ± 39 µM
Compound: COc1cc(-c2[o+]c3cc(O)cc(O)c3cc2O[C@@H]2O[C@H](CO)[C@@H](O)[C@H](O)[C@H]2O)cc(O)c1O.[Cl-] [petunidin-3-glucoside, petunidin-3-glucoside chloride]

Compound: CC(C)Cn1c(=O)n(C)c(=O)c2[nH]cnc21
IC50 [5]: 30 to 50 µM

rel. PDE activity (% of solvent control) ([1]; c = 600 µM): 32.3 ± 2.9%
IC50 of single anthocyanins [1]: 108 ± 6 µg/mL
IC50 [1]: 257 ± 13 µM
Compound: Oc1cc(O)c2cc(O[C@@H]3OC[C@H](O)[C@H](O)[C@H]3O)c(-c3ccc(O)c(O)c3)[o+]c2c1.[Cl-] [cyanidin-3-arabinoside, cyanidin-3-arabinoside chloride]

Compound: O=c1c(O)c(-c2ccc(O)cc2)oc2cc(O)cc(O)c12 [kaempferol]
IC50 [5]: 58 µM
